This passage reports EC50 results from patent publication US8629157B2, “Pyrrolidine compounds which modulate the CB2 receptor” (Boehringer Ingelheim International GmbH, priority 2009, dated 2014).

Chain of human CB2R (P34972 whole entry): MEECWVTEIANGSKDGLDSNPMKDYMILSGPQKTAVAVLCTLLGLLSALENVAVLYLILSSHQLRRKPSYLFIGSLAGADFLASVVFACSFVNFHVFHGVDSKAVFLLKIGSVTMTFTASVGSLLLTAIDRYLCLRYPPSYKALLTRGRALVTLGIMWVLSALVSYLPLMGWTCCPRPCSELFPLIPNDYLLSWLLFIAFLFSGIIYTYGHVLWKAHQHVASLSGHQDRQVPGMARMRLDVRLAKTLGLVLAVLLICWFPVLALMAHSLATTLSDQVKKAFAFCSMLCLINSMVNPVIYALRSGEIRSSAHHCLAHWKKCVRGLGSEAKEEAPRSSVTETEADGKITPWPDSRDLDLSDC

One test addresses human CB2R (Homo sapiens, UniProt P34972). In words: CB2R mediated modulation of cAMP synthesis. In kind it is cell-based.
Settings: not given
The method in brief: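 cAMP measured with the DiscoverX-XS kit after 30 min, 37° C. compound exposure of human CB2R-expressing CHO cells stimulated by 10 uM forskolin (1 mM IBMX, 0.25% BSA).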
A word on the EC50: it is the concentration giving half of the maximal effect. As to `CC(C)(C)CC(C)(C)NC(=O)[C@@H]1CCCN1c1ccc(Cl)cc1` [(S)-1-(4-Chloro-phenyl)-pyrrolidine-2-carboxylic acid (1,1,3,3-tetramethyl-butyl)-amide], a half-maximal response (EC50) required 25.1 nM.
The same measure, in the same setting: next, `CC(=O)N1CCC(CNC(=O)[C@@H]2CCCN2c2ccc(Cl)cc2)CC1` [(S)-1-(4-Chloro-phenyl)-pyrrolidine-2-carboxylic acid (1-acetyl-piperidin-4-ylmethyl)-amide]: 0.015 nM; `CC(C)(C)c1cc(NC(=O)[C@@H]2CCCN2c2ncc(C(F)(F)F)cc2Cl)no1` [(S)-1-(3-Chloro-5-trifluoromethyl-pyridin-2-yl)-pyrrolidine-2-carboxylic acid (5-tert-butyl-isoxazol-3-yl)-amide]: 0.08 nM.
Same read-out and setting: with `CC(C)(C)c1cc(NC(=O)[C@@H]2C[C@@H](O)CN2C2CCCCC2)no1` [(2S,4R)-1-Cyclohexyl-4-hydroxy-pyrrolidine-2-carboxylic acid (5-tert-butyl-isoxazol-3-yl)-amide] the figure was 4.69 nM.
In turn, `CC1CC(NC(=O)[C@@H]2CCCN2c2ccc(Cl)cc2)CC(C)(C)C1` (stereo partly drawn) [(S)-1-(4-Chloro-phenyl)-pyrrolidine-2-carboxylic acid (3,3,5-trimethyl-cyclohexyl)-amide] had an EC50 of 2.16 nM.
In turn, `CC(C)(C)c1cc(NC(=O)[C@@H]2CCCN2CC2C=CCCC2)on1` (stereo partly drawn) [(S)-1-Cyclohex-2-enylmethyl-pyrrolidine-2-carboxylic acid (3-tert-butyl-isoxazol-5-yl)-amide] returned an EC50 of 0.072 nM.
For `CC(C)(C)c1cc(NC(=O)[C@@H]2CCCN2S(=O)(=O)c2ccc(C(F)(F)F)cc2)no1` [(S)-1-(4-Trifluoromethyl-benzenesulfonyl)-pyrrolidine-2-carboxylic acid (5-tert-butyl-isoxazol-3-yl)-amide], the concentration for a half-maximal effect (EC50) stood at 222 nM.
`CCc1sc(NC(=O)[C@@H]2C[C@@H](O)CN2C2CCOCC2)nc1-c1ccccc1` [(2S,4R)-4-Hydroxy-1-(tetrahydro-pyran-4-yl)-pyrrolidine-2-carboxylic acid (5-ethyl-4-phenyl-thiazol-2-yl)-amide] showed an EC50 of 58.7 nM.
`CC(C)(C)c1cc(NC(=O)[C@@H]2CCC(=O)N2c2ccc([N+](=O)[O-])cc2)no1` [(S)-1-(4-nitro-phenyl)-5-oxo-pyrrolidine-2-carboxylic acid (5-tert-butyl-isoxazol-3-yl)-amide] gave an EC50 of 21.1 nM.
Compound `O=C(Nc1nc(C(F)(F)F)cs1)[C@@H]1CCCN1c1ccc(Cl)cc1` [(S)-1-(4-Chloro-phenyl)-pyrrolidine-2-carboxylic acid (4-trifluoromethyl-thiazol-2-yl)-amide] returned a 50% effective concentration (EC50) of 89.2 nM.
Same read-out and setting: with `CC(C)(C)c1cc(NC(=O)[C@@H]2CCC(=O)N2c2ncc(C(F)(F)F)cc2F)on1` [(S)-1-(3-Fluoro-5-trifluoromethyl-pyridin-2-yl)-5-oxo-pyrrolidine-2-carboxylic acid (3-tert-butyl-isoxazol-5-yl)-amide] the figure was 5 nM.
`CC(C)(C)c1cc(NC(=O)[C@@H]2CCCN2c2ncc(C(F)(F)F)cc2Cl)on1` [(S)-1-(3-Chloro-5-trifluoromethyl-pyridin-2-yl)-pyrrolidine-2-carboxylic acid (3-tert-butyl-isoxazol-5-yl)-amide] showed a concentration giving a half-maximal response (EC50) of 0.055 nM.
The same measure, in the same setting: with `CC(C)(C)c1cc(NC(=O)[C@@H]2CCC(=O)N2c2ccc(F)cn2)on1` [(S)-1-(5-Fluoro-pyridin-2-yl)-5-oxo-pyrrolidine-2-carboxylic acid (3-tert-butyl-isoxazol-5-yl)-amide] the figure was 8.15 nM; with `CC(C)(C)c1cc(NC(=O)[C@@H]2C[C@@H](O)CN2C2CCOCC2)no1` [(2S,4R)-4-Hydroxy-1-(tetrahydro-pyran-4-yl)-pyrrolidine-2-carboxylic acid (5-tert-butyl-isoxazol-3-yl)-amide], 363 nM.
The compound `CC(C)(C)c1cc(NC(=O)[C@@H]2CCC(=O)N2c2cc(F)c(F)c(F)c2)on1` [(S)-5-Oxo-1-(3,4,5-trifluoro-phenyl)-pyrrolidine-2-carboxylic acid (3-tert-butyl-isoxazol-5-yl)-amide] yielded an EC50 of 80 nM.
Turning to `CC(C)c1cc(NC(=O)[C@@H]2CCC(=O)N2c2ccc(Cl)cc2)on1` [(S)-1-(4-Chloro-phenyl)-5-oxo-pyrrolidine-2-carboxylic acid (3-isopropyl-isoxazol-5-yl)-amide], the EC50 is 290 nM.
As to `CC(C)(C)c1cc(NC(=O)[C@@H]2CCCN2Cc2ccc(F)cc2)on1` [(S)-1-(4-Fluoro-benzyl)-pyrrolidine-2-carboxylic acid (3-tert-butyl-isoxazol-5-yl)-amide], the EC50 was 0.747 nM.
Still for that read-out and setting: next, `CC1(C)CC(CN2CCCC2C(=O)Nc2cc(C(C)(C)C)no2)CCO1` (stereo not drawn) [1-(2,2-Dimethyl-tetrahydro-pyran-4-ylmethyl)-pyrrolidine-2-carboxylic acid (3-tert-butyl-isoxazol-5-yl)-amide]: 7.1 nM; `Cc1nc(N2C(=O)CC[C@H]2C(=O)Nc2cc(C(C)(C)C)no2)ccc1F` [(S)-1-(5-Fluoro-6-methyl-pyridin-2-yl)-5-oxo-pyrrolidine-2-carboxylic acid (3-tert-butyl-isoxazol-5-yl)-amide]: 74.4 nM; `CC(C)(C)c1nnc(NC(=O)[C@@H]2CCCN2C2CCC2)s1` [(S)-1-Cyclobutyl-pyrrolidine-2-carboxylic acid (5-tert-butyl-1,3,4-thiadiazol-2-yl)-amide]: 255 nM.
On the same count and under the same terms, with `O=C(Nc1nc(C2CC2)cs1)[C@@H]1CCCN1c1ccc(Cl)cc1` [(S)-1-(4-Chloro-phenyl)-pyrrolidine-2-carboxylic acid (4-cyclopropyl-thiazol-2-yl)-amide] the figure was 36.1 nM; with `CC(C)(C)c1cc(NC(=O)[C@@H]2C[C@H](O)CN2C2CCOCC2)on1` [(2S,4S)-4-Hydroxy-1-(tetrahydro-pyran-4-yl)-pyrrolidine-2-carboxylic acid (3-tert-butyl-isoxazol-5-yl)-amide], 59 nM; with `CC(C)N1CCC[C@H]1C(=O)Nc1cc(C(C)(C)C)no1` [(S)-1-Isopropyl-pyrrolidine-2-carboxylic acid (3-tert-butyl-isoxazol-5-yl)-amide], 163 nM.

The test is the same for the next values; noted with them: CHO cells expressing human CB2R; inhibition of forskolin-stimulated cAMP synthesis; mean; read-out: CB2 CAMP @ EC50 nM (mean).
On to `O=C(Nc1ccc(C(F)(F)F)cn1)C1CCCN1c1ncc(C(F)(F)F)cc1Cl` (stereo not drawn) [1-(3-Chloro-5-trifluoromethyl-pyridin-2-yl)-pyrrolidine-2-carboxylic acid (5-trifluoromethyl-pyridin-2-yl)-amide], for which the half-maximal effective concentration (EC50) stood at 23.2 nM.
Take `O=C(Nc1nc2cc(Cl)ccc2[nH]1)[C@@H]1CCC(=O)N1c1ccc(Cl)cc1` [(S)-1-(4-Chloro-phenyl)-5-oxo-pyrrolidine-2-carboxylic acid (5-chloro-1H-benzimidazol-2-yl)-amide]: the EC50 stood at 255 nM.
In the case of `O=C(NCC1CCCCC1)[C@@H]1C[C@@H](O)CN1C(=O)C1CCC(F)(F)CC1` [(2S,4R)-1-(4,4-Difluoro-cyclohexanecarbonyl)-4-hydroxy-pyrrolidine-2-carboxylic acid cyclohexylmethyl-amide], the half-maximal effective concentration (EC50) was 432 nM.
Still for that read-out and setting: next, `O=C(Nc1nc(-c2ccccc2)ns1)[C@@H]1CCC(=O)N1c1ncc(C(F)(F)F)cc1Cl` [(S)-1-(3-chloro-5-trifluoromethyl-pyridin-2-yl)-5-oxo-pyrrolidine-2-carboxylic acid (3-phenyl-1,2,4-thiadiazol-5-yl)-amide]: 0.549 nM.
